Experimental data as given in ChEMBL document CHEMBL4680201, “Design, synthesis, and pharmacological evaluation of 4- or 6-phenyl-pyrimidine derivatives as novel and selective Janus kinase 3 inhibitors” (Eur J Med Chem, 2020).

Columns and labels:
[1] = biological target: Tyrosine-protein kinase JAK1 (Homo sapiens, UniProt P23458); assay: Inhibition of recombinant human GST-tagged JAK1 cytoplasmic domain (866 to 1154 residues) expressed in baculovirus expression system using TK-substrate-biotin preincubated for 5 mins followed by substrate addition and measured after 30 mins by HTRF assay
Chain of Tyrosine-protein kinase JAK1 (P23458 whole entry, the tested form may be a part): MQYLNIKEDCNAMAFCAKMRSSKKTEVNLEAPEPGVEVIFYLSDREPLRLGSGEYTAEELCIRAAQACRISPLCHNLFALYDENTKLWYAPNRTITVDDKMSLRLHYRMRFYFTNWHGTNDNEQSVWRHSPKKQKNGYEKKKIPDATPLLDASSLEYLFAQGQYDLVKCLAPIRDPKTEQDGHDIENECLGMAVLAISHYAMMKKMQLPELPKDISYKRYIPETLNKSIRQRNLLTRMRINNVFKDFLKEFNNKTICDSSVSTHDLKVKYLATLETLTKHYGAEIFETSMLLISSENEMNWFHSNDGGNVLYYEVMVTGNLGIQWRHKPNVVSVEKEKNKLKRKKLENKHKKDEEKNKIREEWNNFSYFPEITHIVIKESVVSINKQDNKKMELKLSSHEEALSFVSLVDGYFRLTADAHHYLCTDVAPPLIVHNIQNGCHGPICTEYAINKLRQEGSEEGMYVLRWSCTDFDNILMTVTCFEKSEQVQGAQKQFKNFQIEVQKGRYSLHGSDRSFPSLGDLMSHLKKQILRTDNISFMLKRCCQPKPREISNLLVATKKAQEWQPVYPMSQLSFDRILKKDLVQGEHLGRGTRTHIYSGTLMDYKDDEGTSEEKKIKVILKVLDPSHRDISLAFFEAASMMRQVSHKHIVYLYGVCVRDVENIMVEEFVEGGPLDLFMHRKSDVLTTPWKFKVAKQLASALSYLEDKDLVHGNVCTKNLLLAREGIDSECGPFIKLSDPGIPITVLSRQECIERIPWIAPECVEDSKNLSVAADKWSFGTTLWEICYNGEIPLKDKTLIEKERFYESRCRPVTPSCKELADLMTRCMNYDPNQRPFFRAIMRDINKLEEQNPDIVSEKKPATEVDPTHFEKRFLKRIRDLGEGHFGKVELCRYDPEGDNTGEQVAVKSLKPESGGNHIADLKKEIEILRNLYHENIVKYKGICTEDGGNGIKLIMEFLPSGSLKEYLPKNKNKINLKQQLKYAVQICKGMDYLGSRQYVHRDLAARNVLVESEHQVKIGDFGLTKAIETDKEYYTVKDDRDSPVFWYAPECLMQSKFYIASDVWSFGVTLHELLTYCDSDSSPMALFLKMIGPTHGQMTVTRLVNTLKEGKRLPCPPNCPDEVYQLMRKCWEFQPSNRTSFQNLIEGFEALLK

[2] = biological target: T1, Tyrosine-protein kinase JAK3 (Homo sapiens, UniProt P52333)
T1 sequence (P52333 whole entry): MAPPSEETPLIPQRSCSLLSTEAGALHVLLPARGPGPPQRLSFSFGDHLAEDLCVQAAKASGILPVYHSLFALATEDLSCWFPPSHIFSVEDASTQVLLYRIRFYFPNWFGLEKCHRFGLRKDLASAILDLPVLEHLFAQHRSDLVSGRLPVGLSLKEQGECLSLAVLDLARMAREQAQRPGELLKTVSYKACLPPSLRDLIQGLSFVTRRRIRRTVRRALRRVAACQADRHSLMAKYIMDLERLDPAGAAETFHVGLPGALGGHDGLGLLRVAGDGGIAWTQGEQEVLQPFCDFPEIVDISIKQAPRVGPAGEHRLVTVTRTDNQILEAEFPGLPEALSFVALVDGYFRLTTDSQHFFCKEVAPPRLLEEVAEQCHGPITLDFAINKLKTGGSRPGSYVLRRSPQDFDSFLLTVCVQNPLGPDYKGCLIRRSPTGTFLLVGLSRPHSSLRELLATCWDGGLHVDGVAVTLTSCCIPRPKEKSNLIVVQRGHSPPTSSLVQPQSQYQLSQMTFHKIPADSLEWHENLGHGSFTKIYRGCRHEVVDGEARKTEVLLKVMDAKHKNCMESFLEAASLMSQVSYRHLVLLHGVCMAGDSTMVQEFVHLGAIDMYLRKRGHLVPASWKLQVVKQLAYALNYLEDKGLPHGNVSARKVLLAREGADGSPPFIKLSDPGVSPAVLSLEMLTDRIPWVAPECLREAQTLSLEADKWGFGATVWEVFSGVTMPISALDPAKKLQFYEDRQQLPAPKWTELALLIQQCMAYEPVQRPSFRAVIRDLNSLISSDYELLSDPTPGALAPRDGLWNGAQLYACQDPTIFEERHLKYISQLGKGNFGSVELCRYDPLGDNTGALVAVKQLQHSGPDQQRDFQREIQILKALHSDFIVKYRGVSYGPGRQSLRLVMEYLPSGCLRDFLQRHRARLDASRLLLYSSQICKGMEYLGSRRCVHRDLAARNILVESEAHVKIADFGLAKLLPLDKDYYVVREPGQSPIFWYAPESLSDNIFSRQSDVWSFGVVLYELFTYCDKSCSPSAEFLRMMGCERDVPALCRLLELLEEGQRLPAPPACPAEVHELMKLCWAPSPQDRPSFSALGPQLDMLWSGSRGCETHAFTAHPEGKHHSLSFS

[3] = biological target: Tyrosine-protein kinase JAK2 (Homo sapiens, UniProt O60674); format: ADME
Chain of Tyrosine-protein kinase JAK2 (O60674 whole entry, the tested form may be a part): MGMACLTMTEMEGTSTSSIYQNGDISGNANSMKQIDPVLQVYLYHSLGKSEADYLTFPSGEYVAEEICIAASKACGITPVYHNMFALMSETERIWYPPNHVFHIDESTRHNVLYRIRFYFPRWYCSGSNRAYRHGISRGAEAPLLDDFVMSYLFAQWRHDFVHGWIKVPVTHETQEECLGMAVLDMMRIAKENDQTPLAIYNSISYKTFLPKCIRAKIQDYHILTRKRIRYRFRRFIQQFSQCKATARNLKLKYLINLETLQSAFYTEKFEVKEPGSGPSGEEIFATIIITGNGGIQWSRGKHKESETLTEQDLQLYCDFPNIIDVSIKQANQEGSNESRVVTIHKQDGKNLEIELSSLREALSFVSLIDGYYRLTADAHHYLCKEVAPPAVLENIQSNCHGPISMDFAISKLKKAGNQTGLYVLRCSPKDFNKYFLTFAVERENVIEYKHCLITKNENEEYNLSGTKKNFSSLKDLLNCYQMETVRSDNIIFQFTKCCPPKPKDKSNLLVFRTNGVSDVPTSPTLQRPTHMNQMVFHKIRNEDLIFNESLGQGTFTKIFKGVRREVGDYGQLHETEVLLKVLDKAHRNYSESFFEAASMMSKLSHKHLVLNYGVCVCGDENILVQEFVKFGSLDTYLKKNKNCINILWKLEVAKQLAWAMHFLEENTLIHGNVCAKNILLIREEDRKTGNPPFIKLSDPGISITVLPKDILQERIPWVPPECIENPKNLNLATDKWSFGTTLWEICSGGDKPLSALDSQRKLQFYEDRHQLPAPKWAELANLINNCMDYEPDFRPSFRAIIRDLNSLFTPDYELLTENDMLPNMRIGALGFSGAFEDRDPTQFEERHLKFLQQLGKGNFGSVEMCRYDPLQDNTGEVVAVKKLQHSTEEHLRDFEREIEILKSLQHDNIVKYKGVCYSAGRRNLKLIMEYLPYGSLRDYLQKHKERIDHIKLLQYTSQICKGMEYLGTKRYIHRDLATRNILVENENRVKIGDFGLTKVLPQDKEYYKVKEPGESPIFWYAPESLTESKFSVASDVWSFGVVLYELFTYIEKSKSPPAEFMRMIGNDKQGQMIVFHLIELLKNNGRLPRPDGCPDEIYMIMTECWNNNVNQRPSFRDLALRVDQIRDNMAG

[4] = biological target: Non-receptor tyrosine-protein kinase TYK2 (Homo sapiens, UniProt P29597); assay: Inhibition of recombinant human N-terminal GST-tagged TYK2 cytoplasmic domain (833 to 1187 residues) expressed in baculovirus expression system using TK-substrate-biotin preincubated for 5 mins followed by substrate addition and measured after 30 mins by HTRF assay
Chain of Non-receptor tyrosine-protein kinase TYK2 (P29597 whole entry, the tested form may be a part): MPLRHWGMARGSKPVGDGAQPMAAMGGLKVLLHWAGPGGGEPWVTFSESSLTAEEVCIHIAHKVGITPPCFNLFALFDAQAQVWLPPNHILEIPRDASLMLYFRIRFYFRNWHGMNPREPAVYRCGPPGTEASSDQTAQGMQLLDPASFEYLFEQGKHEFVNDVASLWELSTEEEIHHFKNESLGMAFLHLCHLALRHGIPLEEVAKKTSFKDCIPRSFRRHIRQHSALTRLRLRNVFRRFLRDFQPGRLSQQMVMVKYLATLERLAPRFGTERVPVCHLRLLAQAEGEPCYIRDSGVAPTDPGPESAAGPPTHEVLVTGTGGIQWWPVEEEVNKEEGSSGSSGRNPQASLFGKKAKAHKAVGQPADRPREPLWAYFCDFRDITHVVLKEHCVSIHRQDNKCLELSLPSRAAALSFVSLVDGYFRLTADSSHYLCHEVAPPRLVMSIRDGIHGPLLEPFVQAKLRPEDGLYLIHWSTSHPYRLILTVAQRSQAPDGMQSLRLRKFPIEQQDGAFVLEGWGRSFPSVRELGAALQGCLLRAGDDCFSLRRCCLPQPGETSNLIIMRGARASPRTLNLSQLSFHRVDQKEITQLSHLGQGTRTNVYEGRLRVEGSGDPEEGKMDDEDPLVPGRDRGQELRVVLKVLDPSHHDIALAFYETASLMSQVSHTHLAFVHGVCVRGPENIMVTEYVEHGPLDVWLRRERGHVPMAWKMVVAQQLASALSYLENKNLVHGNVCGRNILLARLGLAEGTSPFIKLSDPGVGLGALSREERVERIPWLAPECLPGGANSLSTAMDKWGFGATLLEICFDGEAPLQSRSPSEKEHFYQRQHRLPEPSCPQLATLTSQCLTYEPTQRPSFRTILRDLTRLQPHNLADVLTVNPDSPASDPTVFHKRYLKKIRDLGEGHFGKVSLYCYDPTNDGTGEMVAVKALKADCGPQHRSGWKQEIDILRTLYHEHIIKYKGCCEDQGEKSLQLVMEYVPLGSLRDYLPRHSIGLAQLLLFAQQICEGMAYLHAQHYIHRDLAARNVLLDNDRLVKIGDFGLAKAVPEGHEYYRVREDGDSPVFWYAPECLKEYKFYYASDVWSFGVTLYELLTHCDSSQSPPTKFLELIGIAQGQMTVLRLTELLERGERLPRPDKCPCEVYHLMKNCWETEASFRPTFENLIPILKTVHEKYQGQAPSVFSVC

IC50 [1] [nM]	IC50 [2] [nM]	IC50 [3] [nM]	IC50 [4] [nM]	Structure (SMILES)
45	108	886	–	C/C=C/C(=O)NCC(=O)Nc1cccc(-c2cc(Nc3cnn(CCOC)c3)ncn2)c1
1440	14	1980	> 3000	C/C=C/C(=O)Nc1ccc(-c2ccnc(Nc3cnn(CCOC)c3)n2)cc1
183	24	–	2500	COCCn1cc(Nc2nccc(-c3ccc(NC(=O)CC#N)cc3)n2)cn1
–	33	2790	2650	C/C=C/C(=O)Nc1cccc(-c2ccnc(Nc3ccc(N4CCOCC4)cc3)n2)c1
568	101	2850	–	C=CC(=O)Nc1cccc(-c2cc(Nc3cnn(CCOC)c3)ncn2)c1
2760	76	–	–	C/C=C/C(=O)Nc1ccc(-c2cc(Nc3cnn(CCOC)c3)ncn2)cc1
2440	221	2810	–	C/C=C/C(=O)Nc1cccc(-c2cc(Nc3cnn(CCO)c3)ncn2)c1
1520	567	2760	–	C/C=C/C(=O)Nc1cccc(-c2cc(Nc3cnn(C)c3)ncn2)c1
899	67	1890	–	C/C=C/C(=O)Nc1cccc(-c2cc(Nc3cnn(CCN(C)C)c3)ncn2)c1

More lines, now with the values behind:

Structure (SMILES)	IC50 [1] [nM]	IC50 [2] [nM]	IC50 [3] [nM]	IC50 [4] [nM]
C=CC(=O)NCC(=O)Nc1cccc(-c2cc(Nc3cnn(CCOC)c3)ncn2)c1	56	66	1540	–
C/C=C/C(=O)Nc1cccc(-c2cc(Nc3cnn(CC(=O)NC)c3)ncn2)c1	–	92	1110	–
C=CC(=O)Nc1cccc(-c2cc(Nc3cnn(CCO)c3)ncn2)c1	–	599	2590	–
C=CC(=O)NCC(=O)Nc1cccc(-c2cc(Nc3ccc(N4CCOCC4)cc3)ncn2)c1	354	103	> 3000	–
N#CCC(=O)Nc1ccc(-c2ccnc(Nc3ccc(N4CCOCC4)cc3)n2)cc1	433	–	–	> 3000
Cn1cc(Nc2cc(-c3cccc(NC(=O)CC#N)c3)ncn2)cn1	854	145	–	–
CNC(=O)Cn1cc(Nc2cc(-c3cccc(NC(=O)CNC(=O)CC#N)c3)ncn2)cn1	> 3000	127	2730	–
N#CCC(=O)Nc1ccc(-c2cc(Nc3ccc(N4CCOCC4)cc3)ncn2)cc1	528	78	–	–
C=CC(=O)Nc1ccc(-c2cc(Nc3ccc(N4CCOCC4)cc3)ncn2)cc1	961	112	1570	–
C=CC(=O)Nc1cccc(-c2cc(Nc3cnn(CCN(C)C)c3)ncn2)c1	731	309	> 3000	–
N#CCC(=O)Nc1cccc(-c2cc(Nc3ccc(N4CCOCC4)cc3)ncn2)c1	1860	170	734	–
C/C=C/C(=O)Nc1ccc(-c2cc(Nc3ccc(N4CCOCC4)cc3)ncn2)cc1	321	99	2150	–
C=CC(=O)Nc1cccc(-c2cc(Nc3ccc(N4CCOCC4)cc3)ncn2)c1	1110	183	2040	–
Cn1cc(Nc2cc(-c3cccc(NC(=O)CNC(=O)CC#N)c3)ncn2)cn1	89	95	69	–
N#CCC(=O)NCC(=O)Nc1cccc(-c2cc(Nc3ccc(N4CCOCC4)cc3)ncn2)c1	1430	253	309	–
C=CC(=O)Nc1cccc(-c2cc(Nc3cnn(CC(=O)NC)c3)ncn2)c1	840	138	–	–
C=CC(=O)Nc1cccc(-c2cc(Nc3cnn(C)c3)ncn2)c1	657	303	2240	–
C/C=C/C(=O)Nc1cccc(-c2cc(Nc3ccc(N4CCOCC4)cc3)ncn2)c1	2880	–	2130	> 3000
C/C=C/C(=O)NCC(=O)Nc1cccc(-c2cc(Nc3ccc(N4CCOCC4)cc3)ncn2)c1	586	375	–	–
N#CCC(=O)Nc1cccc(-c2cc(Nc3cnn(CCO)c3)ncn2)c1	1540	243	1140	–
